Source: patent US20100143310A1, “SPINAL NERVE REPAIR PROMOTING THERAPEUTICS CONTAINING GHRELIN OR ITS DERIVATIVES OR SUBSTANCES THAT ACT ON GHS-R1a AS AN ACTIVE INGREDIENT” (JAPAN AS REPRESENTED BY PRESIDENT OF NATIONAL …, priority 2006, published 2010)
Where no end group is shown, it is not given here. The star is where a group is joined. Octanoyl = CCCCCCCC(=O)*

How the values were obtained:
[1] = tested on: cultured spinal neuronal precursor cells; assay: BrdU incorporation into cultured spinal neuronal precursor cells (Cell Proliferation ELISA); assay type: cell-based, Wistar rat; details: for BrdU incorporation into cultured spinal neuronal precursor cells, Mean ± S.D.: incubation 12 hours, n=6, Control 100.0 ± 6.7; for concentration that increased the BrdU incorporation into the cells: 12 hours
Source text: Embryos were extracted from a pregnant Wistar rat at day 17 by opening the abdomen under anesthesia. Spinal cords were collected from these embryos and subjected to papain digestion in Hank's balanced salt solution; as a result of subsequent mechanical separation by pipetting, a dispersion of embryonic spinal cord cells was obtained. After being filtered and centrifuged, the dispersed cells were suspended in a DMEM medium containing NaHCO3, 5% fetal bovine serum, penicillin (100 U/mL) and streptomycin (100 μg/mL), followed by plating onto laminin-coated 96-well multi-plates at 10^5 cells per well. After incubation for 4 days, 5-bromo-2'-deoxyuridine (BrdU) (10 μM) was added and incubation was conducted for 6 hours, followed by addition of rat ghrelin (0.003-300 nM) and subsequent incubation for 12 hours. After the end of incubation, the cells were recovered and using Cell Proliferation ELISA Kit (Roche Diagnostic GmbH, Mannheim, Germany), the amount of BrdU incorporation into the cells was measured to investigate the action of ghrelin on BrdU incorporation. Embryos were extracted from a pregnant Wistar rat at day 16 by opening the abdomen under anesthesia. Spinal cords were collected from these embryos and subjected to papain digestion in Hank's balanced salt solution; as a result of subsequent mechanical separation by pipetting, a dispersion of embryonic spinal cord cells was obtained. After being filtered and centrifuged, the dispersed cells were suspended in a DMEM medium containing NaHCO3, 5% fetal bovine serum, penicillin (100 U/mL) and streptomycin (100 μg/mL), followed by plating onto laminin-coated 96-well multi-plates at 10^5 cells per well. After incubation for 4 days, 5-bromo-2'-deoxyuridine (BrdU) (10 μM) was added and incubation was conducted for 6 hours; further, rat ghrelin, ghrelin(1-5)-Lys-NH2 (GSS(n-octanoyl)FLK-NH2), ghrelin(1-7)-Lys-NH2 ([…]) or MK-0677 having the structure indicated below was added in amounts of 0.03-3 nM and incubation was conducted for 12 hours before investigating the action of ghrelin on BrdU incorporation. After the end of incubation, the cells were recovered and using Cell Proliferation ELISA Kit (Roche Diagnostic GmbH, Mannheim, Germany), the amount of BrdU incorporation into the cells was measured to investigate the action of ghrelin on BrdU incorporation.

[2] = tested on: spinal neuron proliferating action of ghrelin; assay: Effect of L-type calcium channel blocker on the spinal neuron proliferating action of ghrelin; assay type: cell-based
[3] = tested on: rat models with injured spinal cord; assay: Grafting spinal neuronal precursor cells and locally administering ghrelin to rat models with injured spinal cord; assay type: in vivo, SD rats
Description: In accordance with the procedure described in Morino, T. et al, Neuroscience Research, 2003, vol. 46, pp 309-318, the grafting of spinal neuronal precursor cells and local administration of ghrelin to rat models with injured spinal cord were assessed. Male SD rats (8 to 9 weeks old) were anesthetized with pentobarbital and incised in the back to expose a vertebra ([…]). After excising the vertebral arch, a dental drill was used to open a window with a diameter of […], and a stainless steel needle with a silicone rubber fixed thereto was applied vertically, followed by loading of the top with a 20-g weight. Following a compression time of 30 minutes, a damaging drop equivalent to a weight of about 100 g was finally applied from above to construct models suffering a movement disorder in the lower limbs. The animals were divided into three groups: 1) a group under sham operation; 2) a control group with injured spinal cord; and 3) a group with injured spinal cord, treated by cell grafting, and locally administered with ghrelin. The group under sham operation received laminectomy but was simply sutured in the muscle and skin thereafter. After injuring the spinal cord, cultured spinal neuronal precursor cells (10^5 cells/25 μL) were grafted subdurally. Rat ghrelin was administered subdurally in an amount of 1 nmol together with the cells.
Twenty-four hours after the operation, the rats were transferred into a see-through cage and observed for the frequency of their standing up (by 3-minute observation). More specifically, the frequency of the rat standing up (in such a posture that it lifted the upper limbs and supported the body weight only with the lower limbs) was counted to assess the function of its hind limbs.

[4] = tested on: spinal neuronal precursor cells; assay: Double immunostaining for Nestin or Map2 and BrdU in proliferating spinal cord cells; assay type: cell-based, Wistar rat; details: FIG. 3-1 A and B; BrdU in nuclei of Nestin-stained cells, not in Map2-stained cells
Description: Double immunostaining was conducted in order to confirm the co-presence of the neuronal precursor cell marker Nestin or the neutron marker Map2 and GHS-R in proliferating cells (cells that were incorporating BrdU).
(§1) Embryos were extracted from a pregnant Wistar rat at day 17 by opening the abdomen under anesthesia. Spinal cords were collected from these embryos and subjected to papain digestion in Hank's balanced salt solution; as a result of subsequent mechanical separation by pipetting, a dispersion of fetal spinal cord cells was obtained. After being filtered and centrifuged, the dispersed cells were suspended in a DMEM medium containing NaHCO3, 5% fetal bovine serum, penicillin (100 U/mL) and streptomycin (100 μg/mL), followed by plating onto laminin-coated 96-well multi-plates at 10^5 cells per well.
To the plates, 5-bromo-2′-deoxyuridine (BrdU) (10 μM) was added and incubation was conducted for 4 days to thereby incorporate the BrdU into the spinal cord cells. The spinal cord cells were fixed with methanol and glacial acetic acid at −20° C. for 20 minutes. After DNA denaturation with 2 M HCl, 2% normal goat serum in PBS was used to perform blocking at room temperature for 30 minutes. […]

[5] = tested on: spinal neuronal precursor cells; assay: Detection of BrdU positive cells with anti-BrdU antibody; assay type: cell-based, Wistar rat; details: FIG. 5, compared to the case where ghrelin was not allowed to act (physiological saline)
Source text: as §1, with “of embryonic” for “of fetal”, “well. After incubation for 4 days, 5-bromo-2′-deoxyuridine (BrdU) (10 μM) was added and incubation was conducted for 6 hours, followed by addition of rat ghrelin (0.003-300 nM) and subsequent incubation for 12 hours.” for “well.”
After the end of incubation, the cells were fixed with methanol and glacial acetic acid, had their DNA denatured with 2 N HCl; thereafter, the BrdU incorporated into the cells was measured by detecting the BrdU positive cells using a rat anti-BrdU monoclonal antibody (1:1000, Abcam, Cambridge, UK) as a primary antibody, and also using Cy™ 3-conjugated donkey anti-rat IgG polyclonal antibody (1:1000, Jackson ImmunoResearch Laboratories, Inc., PA, USA) as a secondary antibody, in order to investigate the action of ghrelin for proliferating spinal precursor cells. […]

Compound | BrdU incorporation into cultured spinal neuronal precursor cells, Mean ± S.D. ([1]; 0.03 nM) | BrdU incorporation into cultured spinal neuronal precursor cells, Mean ± S.D. ([1]; 0.3 nM) | BrdU incorporation into cultured spinal neuronal precursor cells, Mean ± S.D. ([1]; 3 nM) | concentration that increased the BrdU incorporation into the cells ([1]; Example 5, 0.03-3 nM tested) | suppression of the spinal neuron proliferating action of ghrelin [2] | concentration that increased the BrdU incorporation into the cells ([1]; Example 4, FIG. 4, rat ghrelin 0.003-300 nM tested) | frequency of a rat standing up per unit time, 24 hours after operation ([3]; 24 hours after operation, rat ghrelin 1 nmol subdurally together with grafted cells (10^5 cells/25 μL), 3-minute observation, control group with injured spinal cord 1.3 ± 0.6) | function of hind limbs (frequency of standing up), result in words ([3]; combination of cell grafting and local administration of ghrelin) | frequency of a rat standing up per unit time, Initial ([3]; initial, 3-minute observation) | cell type proliferated after treatment (BrdU with Nestin or Map2 double staining) [4] | BrdU positive cells detected [5]
CC(C)(N)C(=O)N[C@H](COCc1ccccc1)C(=O)N1CCC2(CC1)CN(S(C)(=O)=O)c1ccccc12 [MK-0677, reference compound] | 119.5 ± 4.6 | 112.0 ± 13.9 | 105.8 ± 13.0 | 0.03 nM | – | – | – | – | – | – | –
COc1ccc([C@@H]2Sc3ccccc3N(CCN(C)C)C(=O)[C@@H]2OC(C)=O)cc1 [diltiazem] | – | – | – | – | did not suppress | – | – | – | – | – | –
GSS(n-octanoyl)FLK-NH2 (GSS(Octanoyl)FLK-NH2; N-terminus assumed; SMILES CCCCCCCC(=O)OC[C@H](NC(=O)[C@H](CO)NC(=O)CN)C(=O)N[C@@H](Cc1ccccc1)C(=O)N[C@@H](CC(C)C)C(=O)N[C@@H](CCCCN)C(N)=O) [Ghrelin (1-5)-Lys-NH2] | 106.9 ± 13.2 | 114.2 ± 11.3 | 103.5 ± 9.6 | – | – | – | – | – | – | – | –
GSS(n-octanoyl)FLSPK-NH2 (GSS(Octanoyl)FLSPK-NH2; N-terminus assumed; SMILES CCCCCCCC(=O)OC[C@H](NC(=O)[C@H](CO)NC(=O)CN)C(=O)N[C@@H](Cc1ccccc1)C(=O)N[C@@H](CC(C)C)C(=O)N[C@@H](CO)C(=O)N1CCC[C@H]1C(=O)N[C@@H](CCCCN)C(N)=O) [Ghrelin (1-7)-Lys-NH2] | 108.3 ± 11.6 | 115.9 ± 14.1 | 140.5 ± 41.9 | – | – | – | – | – | – | – | –
Ghrelin: rat ghrelin: 28-residue peptide, third serine acylated with n-octanoyl; endogenous ligand of GHS-R1a (SEQ ID NO:3 or 4) (GSS(Octanoyl)FLSPEHQKAQQRKESKKPPAKLQPR) | 112.5 ± 8.7 | 112.0 ± 15.0 | 120.4 ± 7.9 | – | – | ≥ 3 nM | 8.7 ± 4.2 | led to a recovery in the frequency of standing up | 11.7 ± 2.3 | has an action for proliferating spinal neuronal precursor cells | a large number of BrdU positive cells were detected
